Columns and labels:
AHR [1] = molecular target: T1, AHR (Homo sapiens, UniProt P35869); test: In vitro assay 1: antagonism in human cell line (transactivation assay, U87 cells prestimulated with kynurenic acid, DRE firefly luciferase reporter); format: cell-based; set-up: host or cells: U87 glioblastoma cells, stably transfected with DRE firefly luciferase and renilla reporter constructs; conditions: 150 uM kynurenic acid, 20 hours, read-out: Assay 1: AHR-luc Hum Antagonism IC50
T1 sequence (P35869 11-848): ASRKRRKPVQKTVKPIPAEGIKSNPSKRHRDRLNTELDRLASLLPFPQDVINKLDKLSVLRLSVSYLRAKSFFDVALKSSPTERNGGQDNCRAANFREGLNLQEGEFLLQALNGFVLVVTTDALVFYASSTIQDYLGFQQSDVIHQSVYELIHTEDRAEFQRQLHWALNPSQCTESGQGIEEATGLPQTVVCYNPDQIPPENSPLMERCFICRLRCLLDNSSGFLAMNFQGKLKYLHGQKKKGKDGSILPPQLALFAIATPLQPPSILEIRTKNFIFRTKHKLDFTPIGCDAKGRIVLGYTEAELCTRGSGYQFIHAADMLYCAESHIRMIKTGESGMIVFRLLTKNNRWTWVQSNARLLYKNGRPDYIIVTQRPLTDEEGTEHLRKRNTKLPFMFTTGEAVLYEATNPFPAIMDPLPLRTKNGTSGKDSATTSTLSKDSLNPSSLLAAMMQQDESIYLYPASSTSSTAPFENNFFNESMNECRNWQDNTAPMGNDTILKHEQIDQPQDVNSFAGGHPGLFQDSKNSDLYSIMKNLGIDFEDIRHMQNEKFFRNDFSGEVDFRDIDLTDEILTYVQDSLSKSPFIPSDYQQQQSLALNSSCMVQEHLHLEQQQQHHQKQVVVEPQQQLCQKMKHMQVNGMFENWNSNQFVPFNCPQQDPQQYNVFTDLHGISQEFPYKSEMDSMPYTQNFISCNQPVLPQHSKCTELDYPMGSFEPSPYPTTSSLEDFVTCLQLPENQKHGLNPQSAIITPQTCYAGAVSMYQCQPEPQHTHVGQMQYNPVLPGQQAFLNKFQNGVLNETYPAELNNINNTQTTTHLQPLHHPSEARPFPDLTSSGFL
Procedure: (§1) Transactivation Assay in Human Cell Line (In Vitro Assays 1 and 2)
(§2) Transactivation assays were carried out in U87 glioblastoma cells (ATCC) endogenously expressing AHR. In addition the cells were stably transfected with an AHR inducible firefly luciferase reporter gene construct that carried AHR-binding sites (DRE) in its promoter and a renilla reporter gene construct with constitutively active promoter. Kynurenic acid is an endogenous AHR activating ligand and was used to prestimulate test cells prior to testing the antagonistic properties of compounds.
In Vitro Assay 1: Antagonism in Human Cell Line
Normalization was done by positive and negative controls.

AHR [2] = molecular target: T1, AHR; test: In vitro assay 2: agonism in human cell line (transactivation assay, U87 cells, DRE firefly luciferase reporter); format: cell-based; set-up: host or cells: U87 glioblastoma cells, stably transfected with DRE firefly luciferase and renilla reporter constructs; conditions: no kynurenic acid, 20 hours, read-out: Assay 2: AHR-luc Hum Agonism IC50
Procedure: as §1, §2
In Vitro Assay 2: Agonism in Human Cell Line
As positive activation control cells were incubated with 300 uM kynurenic acid. Normalization was done by positive and negative controls.

| SMILES | IC50 (AHR [1]) [µM] | IC50 (AHR [2]) [µM] |
| --- | --- | --- |
| Cc1ccc(-c2cc(C(=O)NC(CO)C(C)C)c(=O)n(-c3cnn(C)c3)n2)cc1 (single isomer, unassigned) [Example 3, N-(1-Hydroxy-3-methylbutan-2-yl)-6-(4-methylphenyl)-2-(1-methyl-1H-pyrazol-4-yl)-3-oxo-2,3-dihydropyridazine-4-carboxamide] | 0.105 | > 20 |
| O=C(N[C@H]1COC[C@@H]1O)c1cc(-c2ccc(Cl)cc2)nn(-c2cncc(F)c2)c1=O (relative stereo) [Example 154, 6-(4-Chlorophenyl)-2-(5-fluoropyridin-3-yl)-N-[(trans)-4-hydroxytetrahydrofuran-3-yl]-3-oxo-2,3-dihydropyridazine-4-carboxamide] | 0.0368 | > 20 |
| O=C(N[C@H]1CCCC[C@H]1O)c1cc(-c2ccc(Cl)cc2)nn(-c2ccnnc2)c1=O [Example 164, 3-(4-Chlorophenyl)-N-[(1S,2R)-2-hydroxycyclohexyl]-6-oxo-6H-1,4′-bipyridazine-5-carboxamide] | 0.157 | > 20 |
| N#C[C@@H](CO)NC(=O)c1cc(-c2ccc(C(F)(F)F)nc2)nn(-c2cncc(F)c2)c1=O [Example 341, N-[(1S)-1-Cyano-2-hydroxyethyl]-2-(5-fluoropyridin-3-yl)-3-oxo-6-[6-(trifluoromethyl)pyridin-3-yl]-2,3-dihydropyridazine-4-carboxamide] | 0.102 | > 20 |
| CC(C)(O)CNC(=O)c1cc(-c2ccc(C(F)(F)F)cc2)nn(-c2cnn(C(F)F)c2)c1=O [Example 262, 2-[1-(Difluoromethyl)-1H-pyrazol-4-yl]-N-(2-hydroxy-2-methylpropyl)-3-oxo-6-[4-(trifluoromethyl)phenyl]-2,3-dihydropyridazine-4-carboxamide] | 0.0412 | > 20 |
| O=C(N[C@H](CO)C(F)(F)F)c1cc(-c2ccc(Cl)cc2)nn(-c2cnn(C3CCC3)c2)c1=O [Example 41, 6-(4-Chlorophenyl)-2-(1-cyclobutyl-1H-pyrazol-4-yl)-3-oxo-N-[(2R)-1,1,1-trifluoro-3-hydroxypropan-2-yl]-2,3-dihydropyridazine-4-carboxamide] | 1.65 | > 20 |
| O=C(N[C@H]1CCC[C@@H]1O)c1cc(-c2ccc(Cl)cc2)nn(-c2ccnnc2)c1=O [Example 174, 3-(4-Chlorophenyl)-N-[(1S,2S)-2-hydroxycyclopentyl]-6-oxo-6H-1,4′-bipyridazine-5-carboxamide] | 0.0615 | > 20 |
| O=C(NCC(O)C(F)F)c1cc(-c2ccc(C(F)(F)F)cc2)nn(-c2cccnc2)c1=O (racemic) [Example 101, N-[(2RS)-3,3-Difluoro-2-hydroxypropyl]-3-oxo-2-(pyridin-3-yl)-6-[4-(trifluoromethyl)phenyl]-2,3-dihydropyridazine-4-carboxamide] | 0.00954 | > 20 |
| O=C(N[C@H](CO)C(F)(F)F)c1cc(-c2ccc(Cl)cc2)nn(-c2cnsc2)c1=O [Example 198, 6-(4-Chlorophenyl)-3-oxo-2-(1,2-thiazol-4-yl)-N-[(2R)-1,1,1-trifluoro-3-hydroxypropan-2-yl]-2,3-dihydropyridazine-4-carboxamide] | 0.000599 | > 20 |
| C[C@H](CO)NC(=O)c1cc(-c2ccc(Cl)cc2)nn(-c2cncnc2)c1=O [Example 279, 6-(4-Chlorophenyl)-N-[(2R)-1-hydroxypropan-2-yl]-3-oxo-2-(pyrimidin-5-yl)-2,3-dihydropyridazine-4-carboxamide] | 0.168 | > 20 |
| O=C(N[C@H](CO)C(F)(F)F)c1cc(-c2ccc(C(F)(F)F)cc2)nn(-c2cnn(C(F)F)c2)c1=O [Example 214, 2-[1-(Difluoromethyl)-1H-pyrazol-4-yl]-3-oxo-N-[(2R)-1,1,1-trifluoro-3-hydroxypropan-2-yl]-6-[4-(trifluoromethyl)phenyl]-2,3-dihydropyridazine-4-carboxamide] | 0.00207 | > 20 |
| O=C(NCC(O)C(F)F)c1cc(-c2ccc(C(F)(F)F)cc2)nn(-c2cccnc2)c1=O (single isomer, unassigned; (+)) [Example 247, (+)-N-(3,3-Difluoro-2-hydroxypropyl)-3-oxo-2-(pyridin-3-yl)-6-[4-(trifluoromethyl)phenyl]-2,3-dihydropyridazine-4-carboxamide] | 0.0139 | > 20 |
| CC(C)(O)C(NC(=O)c1cc(-c2ccc(OC(F)(F)F)cc2)nn(-c2cccnc2)c1=O)C(F)(F)F (centres unmarked) [Example 135, 3-Oxo-2-(pyridin-3-yl)-N-[1,1,1-trifluoro-3-hydroxy-3-methylbutan-2-yl]-6-[4-(trifluoromethoxy)phenyl]-2,3-dihydropyridazine-4-carboxamide] | 0.00791 | > 20 |
| COC(=O)[C@@H](CO)NC(=O)c1cc(-c2ccc(Cl)cc2)nn(-c2cccnc2)c1=O [Example 274, Methyl N-{[6-(4-chlorophenyl)-3-oxo-2-(pyridin-3-yl)-2,3-dihydropyridazine-4-yl]carbonyl}-D-serinate] | 0.111 | > 20 |
| O=C(N[C@H]1CCCC(F)(F)[C@@H]1O)c1cc(-c2ccc(Cl)cc2)nn(-c2cccnc2)c1=O (single isomer, unassigned; enantiomer 1) [Example 144, 6-(4-Chlorophenyl)-N-[(trans)-3,3-difluoro-2-hydroxycyclohexyl]-3-oxo-2-(pyridin-3-yl)-2,3-dihydropyridazine-4-carboxamide, Enantiomer 1] | 0.0314 | > 20 |
| O=C(N[C@@H]1CC[C@@H]1O)c1cc(-c2ccc(C(F)(F)F)cc2)nn(-c2cccnc2)c1=O (relative stereo) [Example 224, N-cis-2- Hydroxycyclobutyl-3-oxo-2-(pyridin-3-yl)-6-[4-(trifluoromethyl)phenyl]-2,3-dihydropyridazine-4-carboxamide] | 0.00437 | > 20 |
| C[C@@H](CO)NC(=O)c1cc(-c2ccc(Cl)cc2)nn(-c2ccnnc2)c1=O [Example 177, 3-(4-Chlorophenyl)-N-[(2S)-1-hydroxypropan-2-yl]-6-oxo-6H-1,4′-bipyridazine-5-carboxamide] | 0.465 | > 20 |
| Cn1cc(-n2nc(-c3ccc(OC(F)F)cc3)cc(C(=O)NC(C(C)(C)O)C(F)(F)F)c2=O)cn1 (single isomer, unassigned) [Example 306, 6-[4-(Difluoromethoxy)phenyl]-2-(1-methyl-1H-pyrazol-4-yl)-3-oxo-N-(1,1,1-trifluoro-3-hydroxy-3-methylbutan-2-yl)-2,3-dihydropyridazine-4-carboxamide] | 0.00133 | > 20 |
| C[C@@H](CO)NC(=O)c1cc(-c2ccc(CF)cc2)nn(-c2cnn(C)c2)c1=O [Example 287, 6-[4-(Fluoromethyl)phenyl]-N-[(2S)-1-hydroxypropan-2-yl]-2-(1-methyl-1H-pyrazol-4-yl)-3-oxo-2,3-dihydropyridazine-4-carboxamide] | 0.721 | > 20 |
| O=C(NC[C@H](O)CO)c1cc(-c2ccc(C(F)(F)F)cc2)nn(-c2cccnc2)c1=O [Example 114, N-[(2S)-2,3-Dihydroxypropyl]-3-oxo-2-(pyridin-3-yl)-6-[4-(trifluoromethyl)phenyl]-2,3-dihydropyridazine-4-carboxamide] | 0.0855 | > 20 |
| COC[C@@H](CO)NC(=O)c1cc(-c2ccc(C(F)(F)F)cc2)nn(-c2cccnc2)c1=O [Example 257, N-[(2R)-1-Hydroxy-3-methoxypropan-2-yl]-3-oxo-2-(pyridin-3-yl)-6-[4-(trifluoromethyl)phenyl]-2,3-dihydropyridazine-4-carboxamide] | 0.0263 | > 20 |
| C[C@H](NC(=O)c1cc(-c2ccc(OC(F)F)cc2)nn(-c2cccnc2)c1=O)C(C)(C)O [Example 333, 6-[4-(Difluoromethoxy)phenyl]-N-[(2S)-3-hydroxy-3-methylbutan-2-yl]-3-oxo-2-(pyridin-3-yl)-2,3-dihydropyridazine-4-carboxamide] | 0.0749 | > 20 |

Reference: patent US12522594B2, “2-heteroaryl-3-oxo-2,3-dihydropyridazine-4-carboxamides for the treatment of cancer” (Deutsches Krebsforschungszentrum, priority 2017, dated 2026)
